The text below walks through data of patent US5739127A, “2,4'-bridged bis-2,4-diaminoquinazolines” (Bayer Aktiengesellschaft, priority 1996, dated 1998).

The structures appear in SMILES notation.

For this assay, the target named is apamine binding sites (apamine-sensitive potassium channels), bovine cerebral membrane. Briefly: Binding of 125I-apamine to bovine cerebral membrane. The settings on record: 30 pM 125I-apamine, bovine (calf) hippocampus membranes, 200 μg membrane protein, 60 min on ice. As for the experimental part:
The compounds according to the invention are ligands for apamine-sensitive potassium channels. This can be shown by studying the affinity for apamine binding sites, e.g. in bovine cerebral membranes.
1) Binding of^125 I-apamine to bovine cerebral membrane
Calf brains were obtained from the local abattoir. The hippocampus was prepared on ice and a membrane suspension was made up by homogenization twice in buffer (100 mM Tris-HCl, KCl 5 mM, pH 7.4) and centrifugation at 43,000×g. In a total volume of 500 μl, the incubation mixture contained 200 μg of membrane protein, 30 pM ^125 I-apamine and test substances in the concentration range 1×10^-9 to 1×10^-4 M. The non-specific binding of ^125 I-apamine was determined in the presence of 1×10^-7 M unlabelled apamine.
After preincubation for 30 rain at room temperature (test substances and membrane homogenate), the samples were placed on ice for 10 min before the radioligand was added. The main incubation time was 60 min on ice. When the reaction time had elapsed, an excess of ice-cooled incubation buffer was added to each sample and the mixture was filtered with suction through cellulose acetate/nitrate membrane filters. The amount of bound ^125 I-apamine was measured with a gamma counter.

Regarding `NC(=O)C1CCCN(c2nc(N3CCC(CNc4nc(N5CCCC5)nc5ccccc45)CC3)nc3ccccc23)C1` (stereo not shown) [Example 5], the Ki worked out at 150 nM.

As a reminder, the Ki is a measure of affinity in units of concentration, obtained from inhibition or displacement. A higher Ki goes with lower affinity.
